Test results published in ChEMBL document CHEMBL5321290, “Discovery of the Diphenyl 6-Oxo-1,6-dihydropyridazine-3-carboxylate/carboxamide Analogue J27 for the Treatment of Acute Lung Injury and Sepsis by Targeting JNK2 and Inhibiting the JNK2-NF-κB/MAPK Pathway” (J Med Chem, 2023).
Activity calls are given as the source filed them. No cut-off for these calls is given here.

Experiments:
J774.A1 [1] = assay: Antiinflammatory activity against mouse J774A.1 cells assessed as inhibition of LPS-stimulated IL6 release measured after 30 mins by ELISA; type: functional, cell-based; details: J774.A1, 0.5 h
J774.A1 [2] = assay: Antiinflammatory activity against mouse J774A.1 cells assessed as inhibition of LPS-stimulated TNFalpha release measured at 10 uM after 30 mins by ELISA relative to control; type: functional; details: J774.A1, 0.5 h
J774.A1 [3] = assay: Antiinflammatory activity against mouse J774A.1 cells assessed as inhibition of LPS-stimulated IL6 release measured at 10 uM after 30 mins by ELISA relative to control; type: functional; details: J774.A1, 0.5 h
J774.A1 [4] = assay: Antiinflammatory activity against mouse J774A.1 cells assessed as inhibition of LPS-stimulated IL6 mRNA expression pretreated for 2 hrs followed by stimulated with LPS by RT-qPCR analysis; type: functional, cell-based; details: dose 2.5-10 µM
THP-1 = assay: Antiinflammatory activity against human THP-1 cells assessed as inhibition of LPS-stimulated IL6 mRNA expression pretreated for 2 hrs followed by stimulated with LPS by RT-qPCR analysis; type: functional, cell-based; details: dose 2.5-10 µM
Mus musculus [5] = assay: Antiinflammatory activity against LPS-induced acute lung injury C57 mouse model assessed as improvement in alveolar structure at 20 mg/kg, po thrice at 12 hrs interval by hematoxylin and eosin dye based light microscopy; type: functional, organism-based; details: time 36.0 hrs
Mus musculus [6] = assay: Antiinflammatory activity against LPS-induced acute lung injury C57 mouse model assessed as decrease in LPS-induced total cell count in broncho alveolar lavage fluid at 20 mg/kg, po thrice at 12 hrs interval; type: functional, organism-based; details: Bronchoalveolar lavage
Mus musculus [7] = assay: Antiinflammatory activity against LPS-induced acute lung injury C57 mouse model assessed as decrease in LPS-induced lung wet to dry weight ratio at 20 mg/kg, po thrice at 12 hrs interval; type: functional, organism-based
Mus musculus [8] = assay: Antiinflammatory activity against LPS-induced acute lung injury C57 mouse model assessed as decrease in LPS-induced IL-6 level in blood at 20 mg/kg, po thrice at 12 hrs interval; type: functional, organism-based
Mus musculus [9] = assay: Antiinflammatory activity against LPS-induced acute lung injury C57 mouse model assessed as decrease in LPS-induced TNFalpha level in blood at 20 mg/kg, po thrice at 12 hrs interval; type: functional, organism-based
[10] = biological target: T1, NF-kappa-B inhibitor alpha (Mus musculus) (UniProt Q9Z1E3); assay: […] in mouse J774A.1 cells pretreated at 10 uM for 2 hrs followed by induced with LPS for 30 mins by Western blot analysis; type: cell-based; details: J774.1
T1 sequence (whole entry): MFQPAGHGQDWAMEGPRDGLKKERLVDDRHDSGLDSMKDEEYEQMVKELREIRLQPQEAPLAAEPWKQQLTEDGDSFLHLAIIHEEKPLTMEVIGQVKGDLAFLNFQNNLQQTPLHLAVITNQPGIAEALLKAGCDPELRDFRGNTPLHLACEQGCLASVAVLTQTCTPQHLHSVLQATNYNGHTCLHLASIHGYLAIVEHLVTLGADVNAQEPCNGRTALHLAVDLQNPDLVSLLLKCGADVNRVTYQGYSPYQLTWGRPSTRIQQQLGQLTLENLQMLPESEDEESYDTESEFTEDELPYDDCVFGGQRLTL

[11] = biological target: Mitogen-activated protein kinase 9 (Homo sapiens, UniProt P45984); assay: Inhibition of JNK2 (unknown origin) assessed as inhibition rate at 10 uM by SPR analysis relative to control
Mitogen-activated protein kinase 9, sequence (P45984 whole entry, looked up): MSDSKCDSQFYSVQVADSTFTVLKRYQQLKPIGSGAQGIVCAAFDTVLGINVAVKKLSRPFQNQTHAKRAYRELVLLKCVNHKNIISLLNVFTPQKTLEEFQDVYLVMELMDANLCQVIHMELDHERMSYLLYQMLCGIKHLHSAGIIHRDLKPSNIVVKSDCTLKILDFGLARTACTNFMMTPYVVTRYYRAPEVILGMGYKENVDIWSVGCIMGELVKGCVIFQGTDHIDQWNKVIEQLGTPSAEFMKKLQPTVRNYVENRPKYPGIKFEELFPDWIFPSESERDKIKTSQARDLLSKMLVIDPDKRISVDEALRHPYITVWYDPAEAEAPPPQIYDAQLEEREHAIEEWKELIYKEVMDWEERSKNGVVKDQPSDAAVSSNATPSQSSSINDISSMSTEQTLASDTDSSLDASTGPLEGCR

[12] = biological target: T2, Mitogen-activated protein kinase kinase kinase 7 (Homo sapiens) (UniProt O43318); assay: Inhibition of TAK1 (unknown origin) assessed as inhibition rate at 10 uM by SPR analysis relative to control
T2 sequence (whole entry): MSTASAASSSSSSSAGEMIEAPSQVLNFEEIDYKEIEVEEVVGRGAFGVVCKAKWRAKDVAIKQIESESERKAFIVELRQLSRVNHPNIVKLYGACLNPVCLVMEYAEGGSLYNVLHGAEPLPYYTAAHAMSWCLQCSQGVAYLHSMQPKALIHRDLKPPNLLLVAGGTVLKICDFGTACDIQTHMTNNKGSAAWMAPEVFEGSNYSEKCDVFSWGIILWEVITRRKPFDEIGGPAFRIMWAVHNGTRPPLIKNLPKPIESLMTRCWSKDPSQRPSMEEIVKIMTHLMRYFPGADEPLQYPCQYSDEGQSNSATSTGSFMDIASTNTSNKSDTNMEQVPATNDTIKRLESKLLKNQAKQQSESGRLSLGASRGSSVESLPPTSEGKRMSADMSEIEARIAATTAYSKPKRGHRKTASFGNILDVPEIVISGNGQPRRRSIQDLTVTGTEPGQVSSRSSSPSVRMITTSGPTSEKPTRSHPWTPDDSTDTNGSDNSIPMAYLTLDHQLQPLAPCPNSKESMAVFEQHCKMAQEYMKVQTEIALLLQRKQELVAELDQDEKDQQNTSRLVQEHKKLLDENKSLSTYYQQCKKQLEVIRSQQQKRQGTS

[13] = biological target: Mitogen-activated protein kinase 8 (Mus musculus) (UniProt Q91Y86); assay: Binding affinity to JNK1 in protein lysate of LPS-stimulated mouse J774A.1 cells assessed as protein degradation in presence of pronase at 10 to 40 uM measured after overnight incubation by immunoblotting based drug affinity responsive target stability (DARTS) assay; type: subcellular; details: J774.1, dose 10-40 µM
Mitogen-activated protein kinase 8 (Mus musculus), sequence (Q91Y86 whole entry): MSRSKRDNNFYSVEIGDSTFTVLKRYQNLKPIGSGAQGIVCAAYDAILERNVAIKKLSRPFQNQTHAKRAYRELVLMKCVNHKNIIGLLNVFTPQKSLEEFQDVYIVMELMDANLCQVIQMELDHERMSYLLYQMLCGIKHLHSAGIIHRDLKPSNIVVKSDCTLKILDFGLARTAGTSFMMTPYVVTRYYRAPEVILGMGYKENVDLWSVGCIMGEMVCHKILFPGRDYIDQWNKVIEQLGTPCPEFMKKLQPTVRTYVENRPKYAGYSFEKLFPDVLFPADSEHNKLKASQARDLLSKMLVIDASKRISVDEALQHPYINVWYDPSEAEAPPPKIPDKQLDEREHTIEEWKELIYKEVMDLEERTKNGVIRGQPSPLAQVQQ

[14] = biological target: Mitogen-activated protein kinase 10 (Mus musculus) (UniProt Q61831); assay: Binding affinity to JNK3 in protein lysate of LPS-stimulated mouse J774A.1 cells assessed as protein degradation in presence of pronase at 10 to 40 uM measured after overnight incubation by immunoblotting based drug affinity responsive target stability (DARTS) assay; type: subcellular; details: J774.1, dose 10-40 µM
Mitogen-activated protein kinase 10 (Mus musculus), sequence (Q61831 whole entry): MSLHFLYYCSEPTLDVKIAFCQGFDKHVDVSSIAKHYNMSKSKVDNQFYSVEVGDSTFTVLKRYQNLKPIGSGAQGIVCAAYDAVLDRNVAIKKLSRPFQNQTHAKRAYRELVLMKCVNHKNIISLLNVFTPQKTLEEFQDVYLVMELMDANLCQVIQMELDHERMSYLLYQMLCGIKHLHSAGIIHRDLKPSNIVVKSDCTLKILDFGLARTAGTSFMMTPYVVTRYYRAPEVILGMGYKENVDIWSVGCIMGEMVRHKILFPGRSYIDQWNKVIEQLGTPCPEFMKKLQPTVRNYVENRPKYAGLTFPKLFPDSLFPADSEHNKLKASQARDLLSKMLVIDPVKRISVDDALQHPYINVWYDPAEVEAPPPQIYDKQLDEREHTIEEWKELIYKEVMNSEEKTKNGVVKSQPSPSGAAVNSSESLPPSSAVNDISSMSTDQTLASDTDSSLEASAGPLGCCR

Mus musculus [15] = assay: Antiinflammatory activity against LPS-induced acute lung injury C57 mouse model assessed as reduction in LPS-induced p-JNK level in lung tissue at 40 mg/kg, po thrice at 12 hrs interval followed 30 mins treated with LPS by Western blot analysis; type: functional, organism-based; details: time 36.5 hrs
[16] = Subacute toxicity in ICR mouse assessed as change in body weight at 500 to 100 mg/kg, IG measured for 10 days; type: organism-based; details: in vivo, po, 240 h, dose 500-100 mg/kg, time 10 day
[17] = Subacute toxicity in ICR mouse assessed as pathological change in heart at 500 to 100 mg/kg, IG measured for 10 days by hematoxylin and eosin dye based light microscopy; type: organism-based; details: in vivo, po, 240 h, dose 500-100 mg/kg, time 10 day
[18] = Subacute toxicity in ICR mouse assessed as pathological change in lung at 500 to 100 mg/kg, IG measured for 10 days by hematoxylin and eosin dye based light microscopy; type: organism-based; details: in vivo, po, 240 h, dose 500-100 mg/kg, time 10 day
[19] = AUC (0 to t) in Sprague-Dawley rat at 10 mg/kg, po measured upto 24 hrs by UPLC-MS/MS analysis; type: ADME, organism-based; parameters: dose 10 mg/kg, time < 24 hrs, route po; details: in vivo
[20] = AUC (0 to t) in Sprague-Dawley rat at 10 mg/kg, iv measured upto 24 hrs by UPLC-MS/MS analysis; type: ADME, organism-based; parameters: dose 10 mg/kg, time < 24 hrs, route iv; details: in vivo
[21] = Half life in Sprague-Dawley rat at 10 mg/kg, iv measured upto 24 hrs by UPLC-MS/MS analysis; type: ADME, organism-based; details: in vivo
J774.A1 [22] = assay: Antiinflammatory activity against mouse J774A.1 cells assessed as inhibition of LPS-stimulated TNFalpha release measured after 30 mins by ELISA; type: functional, cell-based; details: J774.A1, 0.5 h

In the case of `COc1cc2nccc(Oc3ccc(NC(=O)c4nn(-c5ccc(C)cc5)c(=O)cc4C)cc3)c2cc1OC`, the IC50 (J774.A1 [1]) is reported as 7.11 µM, the inhibition at 10 µM (J774.A1 [2]) is reported as 56.8% and the inhibition at 10 µM (J774.A1 [3]) is reported as 71.5%. The Activity (J774.A1 [4]) was “Dose-Dependent Effect”, the Activity (THP-1) was “Dose-Dependent Effect” and the Activity (Mus musculus [5]) was “inactive”. For the same compound, the Activity (Mus musculus [6]) was “inactive”, the Activity (Mus musculus [7]) was “inactive” and the Activity (Mus musculus [8]) was “Active”. For the same compound, the Activity (Mus musculus [9]) was “Active”, the Activity [10] was “Active” and the inhibition [11] was 64.8%. The inhibition [12] was 8.85%, the Activity [13] was “inactive” and the Activity [14] was “inactive”. The Activity (Mus musculus [15]) was “Active”, the Activity [16] was “Non-Toxic” and the Activity [17] was “Non-Toxic”. For the same compound, the Activity [18] was “Non-Toxic”, the AUCt [19] was 7792.708 ng·h/mL and the AUCt [20] was 2995.673 ng·h/mL. It also gave a half-life [21] of 1.15 h and an IC50 (J774.A1 [22]) of 5.3 µM.
